{"source": "patent US12360111B2", "about": "“G protein-coupled receptor screening systems” (The University of North Carolina at Chapel Hill, priority 2018, dated 2025)", "key": {"[1]": {"tested_on": "5-HT5A receptor fused to Gi, Gq or Gs", "assay": "[35S]GTPγS loading at 5-HT5A receptor-Gα fusions", "type": "biochemical", "conditions": "Gi vs Gq vs Gs fusions"}, "HEK293 cells": {"tested_on": "HEK293 cells", "assay": "Calcium release in HEK293 cells without serotonin receptors", "type": "cell-based", "conditions": "cells do not express serotonin (5-HT) receptors"}, "[2]": {"tested_on": "serotonin-5A receptor (HTR5A)-Gαi1 RLuc fusion", "assay": "Fusion BRET at HTR5A-Gαi1 RLuc", "type": "cell-based"}, "[3]": {"tested_on": "Gα proteins fused to the μ-opioid receptor (MOR)", "assay": "Competition radioligand binding at six Gα proteins fused to MOR"}, "[4]": {"tested_on": "mu-opioid receptor fused to Gαi1-RLuc8 chimera (MOR-Gi1RLuc)", "conditions": "for binding to and GPPNHP elution from membranes (in words): unfused MOR vs MOR-Gαi1 membranes"}, "[5]": {"target": "T1, KOR, Gαi/o-class TRUPATH sensors (Homo sapiens, UniProt P41145)", "T1 construct": "expressed in transfected cells", "T1 sequence (P41145 whole entry)": "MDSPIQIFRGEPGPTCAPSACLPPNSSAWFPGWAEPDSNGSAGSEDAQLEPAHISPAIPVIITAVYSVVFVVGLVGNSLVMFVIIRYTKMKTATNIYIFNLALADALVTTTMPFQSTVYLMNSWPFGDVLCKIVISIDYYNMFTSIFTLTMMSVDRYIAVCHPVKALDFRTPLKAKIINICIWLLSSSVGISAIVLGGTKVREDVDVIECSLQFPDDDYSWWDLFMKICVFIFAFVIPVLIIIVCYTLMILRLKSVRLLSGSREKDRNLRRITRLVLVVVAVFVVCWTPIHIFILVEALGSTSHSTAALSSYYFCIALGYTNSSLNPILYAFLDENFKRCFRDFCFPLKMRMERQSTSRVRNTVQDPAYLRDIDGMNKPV", "type": "cell-based"}, "[6]": {"target": "T2, mu-opioid receptor unfused (MOR) (Homo sapiens, UniProt P35372)", "T2 construct": "expressed in transfected cells", "T2 sequence (P35372 whole entry, the tested form may be a part)": "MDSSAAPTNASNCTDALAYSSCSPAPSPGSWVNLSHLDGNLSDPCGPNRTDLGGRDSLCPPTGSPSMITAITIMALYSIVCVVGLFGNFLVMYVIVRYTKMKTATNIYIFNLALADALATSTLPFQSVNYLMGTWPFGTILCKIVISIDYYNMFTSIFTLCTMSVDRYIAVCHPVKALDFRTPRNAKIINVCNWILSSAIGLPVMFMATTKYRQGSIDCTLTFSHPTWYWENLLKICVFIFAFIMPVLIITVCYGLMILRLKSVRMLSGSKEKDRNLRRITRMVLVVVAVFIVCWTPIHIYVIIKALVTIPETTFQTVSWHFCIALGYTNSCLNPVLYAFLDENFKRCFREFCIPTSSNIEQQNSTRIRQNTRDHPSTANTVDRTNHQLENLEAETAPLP", "type": "binding"}, "[7]": {"target": "T3, μ-opioid receptor (MOR) fused to Gαi1 protein (MOR-Gi1) (Homo sapiens, UniProt P35372+P63096)", "T3 construct": "expressed in transfected cells; host or cells: HEK293 suspension cells, microsomal membranes", "T3 sequence (P35372+P63096 fused)": "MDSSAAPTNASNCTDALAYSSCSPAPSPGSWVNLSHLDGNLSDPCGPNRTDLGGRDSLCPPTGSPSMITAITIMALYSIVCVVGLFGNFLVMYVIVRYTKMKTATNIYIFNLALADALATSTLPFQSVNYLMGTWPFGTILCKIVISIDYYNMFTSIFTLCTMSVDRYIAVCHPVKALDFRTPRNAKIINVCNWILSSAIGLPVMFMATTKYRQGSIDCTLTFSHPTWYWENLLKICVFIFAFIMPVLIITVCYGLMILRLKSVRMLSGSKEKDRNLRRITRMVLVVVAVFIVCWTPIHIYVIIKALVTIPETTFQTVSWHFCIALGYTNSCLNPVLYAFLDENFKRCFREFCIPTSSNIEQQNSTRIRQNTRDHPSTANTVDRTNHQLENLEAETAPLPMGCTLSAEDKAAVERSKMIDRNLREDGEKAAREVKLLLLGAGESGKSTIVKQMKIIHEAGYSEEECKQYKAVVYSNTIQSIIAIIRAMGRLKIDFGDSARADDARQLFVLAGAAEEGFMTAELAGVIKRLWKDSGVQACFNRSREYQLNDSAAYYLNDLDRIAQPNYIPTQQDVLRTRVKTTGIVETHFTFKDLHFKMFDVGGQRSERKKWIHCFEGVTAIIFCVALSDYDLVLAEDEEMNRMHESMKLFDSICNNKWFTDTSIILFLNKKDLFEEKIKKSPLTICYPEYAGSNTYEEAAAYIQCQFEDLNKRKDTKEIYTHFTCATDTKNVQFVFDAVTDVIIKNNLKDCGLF", "assay": "ADSoRB screen with radiolabeled agonist tracer at MOR-Gi1 microsomes", "type": "binding"}, "μ-opioid receptor (MOR)": {"target": "T4, μ-opioid receptor (MOR) (Homo sapiens, UniProt P35372)", "T4 construct": "expressed in transfected cells", "T4 sequence (P35372 whole entry)": "as the sequence (P35372 whole entry, the tested form may be a part) above", "assay": "TRUPATH after alkylation of MOR with β-FNA (receptor reserve)", "type": "cell-based", "conditions": "increasing β-FNA treatment"}}, "note": "“Also recorded” adds a separate entry of the source. Where two headings read alike, the source gives them in different places."}
{"compound": "NCCc1c[nH]c2ccc(O)cc12", "note": "[5-HT]", "values": [{"measurement": "G protein activation ([35S]GTPγS loading, in words)", "setting": "[1]", "result": "only seen at the Gi fusion"}, {"measurement": "calcium release (in words)", "setting": "HEK293 cells", "result": "do not cause calcium release"}, {"measurement": "BRET response (in words)", "setting": "[2]", "result": "reliable and substantial serotonin response"}]}
{"compound": "C[C@@H](NC(=O)[C@@H](N)Cc1ccc(O)cc1)C(=O)NCC(=O)N(C)[C@@H](Cc1ccccc1)C(=O)NCCO", "note": "[DAMGO]", "values": [{"measurement": "affinity shift vs unfused MOR (in words)", "setting": "[3]", "result": "shift compared to unfused MOR"}, {"measurement": "binding to and GPPNHP elution from membranes (in words)", "setting": "[4]", "result": "ability to bind and elute"}]}
{"compound": "COc1cc(CC(C)N)c(OC)cc1I", "note": "(centres unmarked) [DOI]", "values": [{"measurement": "calcium release (in words)", "setting": "HEK293 cells", "result": "do not cause calcium release"}]}
{"compound": "COC(=O)N1CCN(C(=O)Cc2ccc(Cl)c(Cl)c2)C(CN2CCCC2)C1", "note": "(centres unmarked) [GR89,696]", "values": [{"measurement": "efficacy across transducers (in words)", "setting": "[5]", "result": "activated all transducers with equal efficacy"}]}
{"compound": "CCN(CC)C(=O)N[C@H]1C=C2c3cccc4[nH]cc(c34)C[C@H]2N(C)C1", "note": "[Lisuride]", "values": [{"measurement": "calcium release (in words)", "setting": "HEK293 cells", "result": "do not cause calcium release"}]}
{"compound": "O=C(c1ccccn1)N(Cc1cccs1)C1(C(=O)NC2CCCCC2)CCCCC1", "note": "[ML139]", "values": [{"measurement": "efficacy across transducers (in words)", "setting": "[5]", "result": "activated all transducers with equal efficacy"}]}
{"compound": "COc1ccsc1CNCC[C@@]1(c2ccccn2)CCOC2(CCCC2)C1", "note": "[TRV130]", "values": [{"measurement": "affinity shift vs unfused MOR (in words)", "setting": "[3]", "result": "shift compared to unfused MOR"}]}
{"compound": "C[C@@H](NC(=O)[C@@H](N)Cc1ccc(O)cc1)C(=O)NCC(=O)N(C)[C@@H](Cc1ccccc1)C(=O)NCCO", "note": "[[3H]DAMGO]", "values": [{"measurement": "elution upon complex dissociation with GPPNHP", "setting": "[6]", "result": "0.8 % of total"}, {"measurement": "unbound tracer", "setting": "[6]", "result": 67, "unit": "%"}, {"measurement": "elution upon complex dissociation/uncoupling with GPPNHP", "setting": "[7]; GPPNHP elution", "result": "30 % of total agonist added"}, {"measurement": "elution with buffer control", "setting": "[7]; buffer elution", "result": "2 % of total agonist added"}, {"measurement": "unbound tracer", "setting": "[4]; MOR-Gi1RLuc complex", "result": 23, "unit": "%"}, {"measurement": "elution upon complex dissociation with GPPNHP", "setting": "[4]; high affinity MOR-Gi1RLuc complex", "result": "7 % of total"}, {"measurement": "binding to and GPPNHP elution from membranes (in words)", "setting": "[4]; listed as [^3H]DAMGO", "result": "binds more strongly to the MOR-Gαi1 complex; also recorded: elutes to a greater extent"}]}
{"compound": "COC(=O)/C=C/C(=O)N[C@@H]1CC[C@@]2(O)[C@H]3Cc4ccc(O)c5c4[C@@]2(CCN3CC2CC2)[C@H]1O5", "note": "[β-FNA]", "values": [{"measurement": "effect on maximal efficacy (Emax)", "setting": "μ-opioid receptor (MOR)", "result": "strong inhibition of maximal efficacy"}, {"measurement": "effect on potency", "setting": "μ-opioid receptor (MOR)", "result": "minimal effect on potency"}]}
{"compound": "Leu-enkephalin", "values": [{"measurement": "affinity shift vs unfused MOR (in words)", "setting": "[3]", "result": "shift compared to unfused MOR"}]}
